These results are taken from article PMC4237514, “Novel amino-β-lactam derivatives as potent cholesterol absorption inhibitors” (European Journal of Medicinal Chemistry, 2014).

Molecules are shown by their SMILES.

This assay has as its target T1, human NPC1L1 (Homo sapiens, UniProt Q9UHC9).
T1 construct: expressed in transfected cells
T1 sequence (Q9UHC9 22-1359): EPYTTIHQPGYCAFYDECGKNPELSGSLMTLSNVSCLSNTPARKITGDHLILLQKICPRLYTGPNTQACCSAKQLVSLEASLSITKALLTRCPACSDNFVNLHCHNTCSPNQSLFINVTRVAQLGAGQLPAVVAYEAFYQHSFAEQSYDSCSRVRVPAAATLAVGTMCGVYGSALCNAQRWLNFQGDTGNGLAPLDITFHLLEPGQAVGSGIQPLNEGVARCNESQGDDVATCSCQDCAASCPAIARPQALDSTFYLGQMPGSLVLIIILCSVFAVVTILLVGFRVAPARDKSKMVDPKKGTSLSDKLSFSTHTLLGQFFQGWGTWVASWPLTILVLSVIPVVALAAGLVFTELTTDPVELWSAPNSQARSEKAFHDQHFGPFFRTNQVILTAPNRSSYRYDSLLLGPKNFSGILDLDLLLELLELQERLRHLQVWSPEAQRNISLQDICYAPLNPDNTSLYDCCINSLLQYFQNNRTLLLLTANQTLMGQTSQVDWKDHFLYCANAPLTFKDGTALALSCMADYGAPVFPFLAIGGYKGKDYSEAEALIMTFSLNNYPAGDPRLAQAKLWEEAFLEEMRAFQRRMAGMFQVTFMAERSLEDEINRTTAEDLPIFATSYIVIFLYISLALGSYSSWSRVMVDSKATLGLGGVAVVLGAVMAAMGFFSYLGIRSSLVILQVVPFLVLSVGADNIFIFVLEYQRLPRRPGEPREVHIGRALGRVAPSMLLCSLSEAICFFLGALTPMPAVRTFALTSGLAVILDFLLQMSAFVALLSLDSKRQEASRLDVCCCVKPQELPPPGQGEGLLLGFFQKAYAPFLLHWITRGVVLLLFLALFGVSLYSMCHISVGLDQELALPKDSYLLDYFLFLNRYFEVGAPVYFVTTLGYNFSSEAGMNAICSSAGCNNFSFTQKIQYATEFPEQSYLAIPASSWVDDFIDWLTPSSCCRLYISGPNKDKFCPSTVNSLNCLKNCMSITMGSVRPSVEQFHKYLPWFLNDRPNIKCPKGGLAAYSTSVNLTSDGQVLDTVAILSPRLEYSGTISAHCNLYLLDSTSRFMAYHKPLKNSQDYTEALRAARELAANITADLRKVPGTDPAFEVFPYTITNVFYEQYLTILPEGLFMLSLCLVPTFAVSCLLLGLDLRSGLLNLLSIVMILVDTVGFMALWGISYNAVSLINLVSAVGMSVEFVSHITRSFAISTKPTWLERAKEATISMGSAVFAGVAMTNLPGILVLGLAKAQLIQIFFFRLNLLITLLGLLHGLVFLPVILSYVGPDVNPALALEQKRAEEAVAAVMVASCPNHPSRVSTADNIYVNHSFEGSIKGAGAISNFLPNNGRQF
Nature of the assay: In vitro [3H]cholesterol uptake assay in hNPC1L1/MDCKII cells. The class given is cell-based. To be noted: 1 h, read-out: IC50, cholesterol uptake inhibition. How it is done:
Medium A contained DMEM plus 100 units/mL penicillin and 100 μg/mL streptomycin supplemented with 5% lipoprotein-deficient serum (density > 1.21 g/mL, prepared from FCS by ultracentrifugation). Cholesterol Replenishing Medium (Medium B) was prepared according to the modified method reported by Field et al.. In brief, 0.25 mM oleic acid, 50 μM free cholesterol, 10 μM compactin, 50 μM mevalonate, 5 mM Na-taurocholate (Sigma–Aldrich, Germany), and [^3H]cholesterol (0.18 μCi/mL medium, [1,2–3H(N)] cholesterol, 1 mCi/mL (ARC Inc., USA)) in Medium A were mixed and sonicated. Following the micellar formation, compounds 1, 5, 6, 5/6 (70:30), and 6/5 (85:15) (73 mM stock solution in DMSO) were added to Medium B and vortexed to obtain the final concentrations (10, 30, 60, 90, 120, 150, 200 μM).
MDCKII wildtype and hNPC1L1/MDCKII cells were seeded in 24-well plates at a density of 5 × 10^5 cells/mL medium (500 μL medium/well) in Medium A 24 h before the treatment. Cells were washed once with PBS and incubated in Medium B (500 μL medium/well) containing micelles and tested compounds in indicated concentrations for 1 h. Following the incubation, the medium was removed and cells were washed three times with ice-cold 0.2% free fatty acid-free BSA. Cells were lysed and radioactivity in the lysate (100 μL) was determined by liquid scintillation counting. Protein concentrations of the lysates were determined with the DC Protein Assay (Bio-Rad, USA). The results were calculated as cpm/mg protein and expressed as percentage of inhibition compared to untreated cells. Each concentration was tested in duplicate in three independent experiments.

As for `O=C1[C@H](NCC(O)c2ccc(F)cc2)[C@@H](c2ccc(O)cc2)N1c1ccc(F)cc1` (stereo partly drawn) [6/5 (85:15), (3R,4R)-3-[(2S/R)-2-(4-fluorophenyl)-2-hydroxyethylamino]-1-(4-fluorophenyl)-4-(4-hydroxyphenyl)azetidin-2-one], the half-maximal inhibitory concentration (IC50) (usually the concentration that inhibits the measured activity by half) came out at 71 µM.
